Results published in patent US20250145631A1, “HETEROCYCLIC COMPOUND ACTING ON G12D MUTANT KRAS PROTEIN” (Astellas Pharma Inc., priority 2022, published 2025).

What was measured:
[1] = tested on: phosphorylation of ERK (Thr202/Tyr204); experiment: ERK phosphorylation inhibitory effect by Cell ELISA in AsPC-1 cells (Test Example 2); type: cell-based; conditions: Homo sapiens, ASPC1, overnight treatment, Cell ELISA, read-out: IC50 (ERK phosphorylation inhibition)
How it was run: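 AsPC-1 cells (2.0×10^4/well, RPMI 1640 + 10% FBS) treated overnight with compounds (10 points, 10 μM to 0.3 nM final), then glyoxal-fixed and immunostained for phospho-ERK with IRDye 800CW secondary; 800-nm fluorescence read. IC50 by Sigmoid-Emax regression, normalized to DMSO (100%) and 1 μM trametinib (0%).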

[2] = tested on: human G12D mutant KRAS-positive pancreatic cancer line AsPC-1; experiment: Non-anchorage-dependent cell growth inhibitory effect, spheroid 3D culture (Test Example 3); type: cell-based; conditions: ASPC1, 144 h, AsPC-1 spheroid 3D culture, 6 days, CellTiter Glo 2.0, read-out: IC50 (non-anchorage-dependent cell growth inhibition)
How it was run: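 AsPC-1 cells grown as spheroids in RPMI 1640 with 10% FBS at 37° C, 5% CO2, then exposed to compounds (10 μM to 0.3 nM final) for 6 days. Viability read by CellTiter Glo 2.0 luminescence. IC50 from Sigmoid-Emax regression with DMSO as 100% and cell-free medium as 0%.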

| SMILES | IC50 [1] | IC50 [2] |
| --- | --- | --- |
| CO[C@@H](C)COc1nc(N2C[C@@H]3C[C@H]2CN3)c2cc(C3CC3)c(-c3c(C)c(F)cc4[nH]ncc34)c(OCc3ccc(C(=O)N4CCN(Cc5ccc6c(c5)n(C)c(=O)n6C5CCC(=O)NC5=O)C[C@@H]4C)cc3)c2n1 (stereo partly drawn) [Example 10, 3-(5-{[(3S)-4-{4-[({(7M)-6-cyclopropyl-4-[(1S,4S)-2,5-diazabicyclo[2.2.1]heptan-2-yl]-7-(6-fluoro-5-methyl-1H-indazol-4-yl)-2-[(2S)-2-methoxypropoxy]quinazolin-8-yl}oxy)methyl]benzoyl}-3-methylpiperazin-1-yl]methyl}-3-methyl-2-oxo-2,3-dihydro-1H-benzimidazol-1-yl)piperidine-2,6-dione] | 9 nM | 15 nM |
| CO[C@@H](C)COc1cc(O[C@H]2CCNC2)c2cc(C3CC3)c(-c3c(C)c(F)cc4[nH]ncc34)c(OCc3ccc(C(=O)N4CCN(Cc5ccc6c(c5)n(C)c(=O)n6C5CCC(=O)NC5=O)C[C@@H]4C)cc3)c2n1 (stereo partly drawn) [Example 12, 3-[5-({(3S)-4-[4-({[6-cyclopropyl-7-(6-fluoro-5-methyl-1H-indazol-4-yl)-2-[(2S)-2-methoxypropoxy]-4-{[(3S)-pyrrolidin-3-yl]oxy}quinolin-8-yl]oxy}methyl)benzoyl]-3-methylpiperazin-1-yl}methyl)-3-methyl-2-oxo-2,3-dihydro-1H-benzimidazol-1-yl]piperidine-2,6-dione] | 16 nM | 41 nM |
| Cc1c(F)cc2[nH]ncc2c1-c1c(C2CC2)cc2c(N3C[C@@H]4C[C@H]3CN4)nc(OC3CCOCC3)nc2c1OCc1ccc(C(=O)N2CCN(Cc3ccc4c(c3)n(C)c(=O)n4C3CCC(=O)NC3=O)C[C@@H]2C)cc1 (stereo partly drawn) [Example 8, 3-(5-{[(3S)-4-{4-[({(7M)-6-cyclopropyl-4-[(1S,4S)-2,5-diazabicyclo[2.2.1]heptan-2-yl]-7-(6-fluoro-5-methyl-1H-indazol-4-yl)-2-[(oxan-4-yl)oxy]quinazolin-8-yl}oxy)methyl]benzoyl}-3-methylpiperazin-1-yl]methyl}-3-methyl-2-oxo-2,3-dihydro-TH-benzimidazol-1-yl)piperidine-2,6-dione] | 21 nM | 27 nM |
| CO[C@@H](C)COc1cc(N2C[C@@H]3C[C@H]2CN3)c2cc(C3CC3)c(-c3c(C)c(F)cc4[nH]ncc34)c(OCc3ccc(C(=O)N4CCN(Cc5ccc6c(c5)n(C)c(=O)n6C5CCC(=O)NC5=O)C[C@@H]4C)cc3)c2n1 (stereo partly drawn) [Example 29, 3-(5-{[(3S)-4-{4-[({6-cyclopropyl-4-[(1S,4S)-2,5-diazabicyclo[2.2.1]heptan-2-yl]-7-(6-fluoro-5-methyl-1H-indazol-4-yl)-2-[(2S)-2-methoxypropoxy]quinolin-8-yl}oxy)methyl]benzoyl}-3-methylpiperazin-1-yl]methyl}-3-methyl-2-oxo-2,3-dihydro-1H-benzimidazol-1-yl)piperidine-2,6-dione] | 24 nM | 33 nM |
